According to ChEMBL document CHEMBL1137965, “Crucial role of the peroxyketal function for antimalarial activity in the G-factor series” (Bioorg Med Chem Lett, 2004):

System: Plasmodium falciparum
Test: In vitro inhibition of Plasmodium falciparum in [3H]hypoxanthine incorporation assay
Format: functional, organism-based

SMILES | IC50
CO[C@]12OO[C@](C)(CO)C=C1C(=O)C(C)(C)C(=O)C2(C)C | 40 µM
CC(=O)OC12OOC(C)(C)C=C1C(=O)C(C)(C)C(=O)C2(C)C (configuration not stated) | 20.5 µM
C[C@@H]1CC[C@H]2[C@@H](C)C(=O)O[C@@H]3O[C@@]4(C)CC[C@@H]1[C@]32OO4 [ARTEMISININ] | 0.015 µM
CC1(C)C=C2C(=O)C(C)(C)C(=O)C(C)(C)[C@@]2(O)OO1 | 36 µM
CC1(C)C(=O)C2=C[C@@](C)(CO)OO[C@]2(O)C(C)(C)C1=O | > 100 µM
CC1(C)C(=O)C2=C[C@](C)(CO)OO[C@]2(O)C(C)(C)C1=O | > 100 µM
CC1(C)C=C2C(=O)C(C)(C)C(=O)C(C)(C)C2(F)OO1 (configuration not stated) | > 100 µM
CO[C@]12OOC(C)(C)C=C1C(=O)C(C)(C)C(=O)C2(C)C | 0.28 µM
CO[C@]12OO[C@](C)(CO[Si](c3ccccc3)(c3ccccc3)C(C)(C)C)C=C1C(=O)C(C)(C)C(=O)C2(C)C | 1.4 µM
CO[C@]12OO[C@@](C)(CO[Si](c3ccccc3)(c3ccccc3)C(C)(C)C)C=C1C(=O)C(C)(C)C(=O)C2(C)C | 1.5 µM
CC1(C)C(=O)C2=C(OO[C@]3(C)CO[C@H]23)C(C)(C)C1=O | > 100 µM
CO[C@]12OO[C@@](C)(CO)C=C1C(=O)C(C)(C)C(=O)C2(C)C | 1.4 µM
